This is an account of results in paper PMC5219620 (International Journal for Parasitology: Drugs and Drug …, 2016).

The subject of the assay is L6 cells. Nature of the assay: AlamarBlue in vitro compound toxicity in L6 cells. The format is cell-based, rat. The note with it: upper bound of TI over T. copemani G1, G2 and T. cruzi.

The structures appear in SMILES notation.

With `CCCCCCCCCCCCCCCCOP(=O)([O-])OCC[N+](C)(C)C` [Miltefosine, hexadecylphosphocholine], the “Therapeutic index (TI), in general over all trypanosomes tested” value is on record as less than 2.4.

Consider `Nc1nc(N)nc(Nc2ccc([As]3SCC(CO)S3)cc2)n1` (centres unmarked) [Melarsoprol, (2-(4-(4,6-diamino-1,3,5-triazin-2-ylamino)phenyl)-1,3,2-dithiarsolan-4-yl)methanol], for which the “Therapeutic index (TI), in general over all trypanosomes tested” value was less than 12.1.
